# Assay results: patent publication US8222416B2, “Azaindole glucokinase activators” (Hoffmann-La Roche Inc., priority 2009, dated 2012)
# Tests used:
# [1] = biological target: T1, Recombinant human liver GK1 (GST-GK) (Homo sapiens, UniProt P35557); assay: In vitro glucokinase activity assay (G6PDH-coupled, NADH, OD340); format: biochemical; conditions: concentration of activator that produced a 50% increase in the activity of GK; 5 mM D-glucose, 30° C.
# T1 construct: made in house; host or cells: E. coli
# T1 sequence (P35557 1-466 isoform P35557-2): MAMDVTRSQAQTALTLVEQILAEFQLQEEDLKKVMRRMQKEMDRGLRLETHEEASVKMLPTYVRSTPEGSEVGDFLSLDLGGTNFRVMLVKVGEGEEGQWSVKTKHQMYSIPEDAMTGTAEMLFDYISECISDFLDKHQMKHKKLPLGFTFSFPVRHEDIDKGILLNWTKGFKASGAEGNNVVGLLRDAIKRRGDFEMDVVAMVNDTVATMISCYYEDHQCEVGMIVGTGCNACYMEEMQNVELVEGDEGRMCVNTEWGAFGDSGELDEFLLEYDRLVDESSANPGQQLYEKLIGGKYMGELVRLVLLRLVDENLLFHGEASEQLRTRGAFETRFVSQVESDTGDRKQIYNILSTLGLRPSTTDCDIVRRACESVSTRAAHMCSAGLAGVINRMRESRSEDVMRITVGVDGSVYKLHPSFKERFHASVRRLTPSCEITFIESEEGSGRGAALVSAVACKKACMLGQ
# Summary of the method: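 GST-fused human liver GK1 from E. coli, run at 30° C. in pH 7.1 HEPES with 5 mM glucose, 1 mM ATP and 10% DMSO, coupled via G6PDH to NADH. OD340 rate measured after enzyme start; SC1.5 is the activator concentration raising activity 50% over DMSO control.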
# C57BL/6J mice = assay: Glucokinase activator in vivo screen, blood glucose after oral gavage in lean and diet induced obese mice; conditions: Mus musculus, C57B6 mice, read-out: % gluc lowering @ 2 H; for change in vivo at 50 mg/kg: vs control at 2 hours post 50 mg/kg oral dose; for change in vivo at 25 mg/kg: vs control at 2 hours post 25 mg/kg oral dose
# Experimental: Glucokinase Activator in vivo Screen Protocol in Lean and Diet Induced Obese Mice: Lean or Diet-Induced Obese (DIO) C57BL/6J mice were orally dosed via gavage with Glucokinase (GK) activator following a two hour fasting period. Blood glucose determinations were made at various (e.g. 0, 1, 2, 4 and 8 hours post-oral gavage) times during the study.
# C57Bl/6J mice were obtained from Jackson Laboratory (Bar Harbor, Me.) and were maintained in a light-dark cycle with lights on from 0600-1800 hr. For studies in lean mice, the mice were received at age ten weeks and given ad libitum access to control diet (LabDiet 5001 chow, PMI Nutrition, Brentwood, Mo.), and were at least age 11 weeks at the time of study. For studies in the DIO model, the mice were received at age five weeks and given ad libitum access to Bio-Sery F3282 High Fat Diet (Frenchtown, N.J.), and were at least age 16 weeks at the time of study. The experiments were conducted during the light phase of the light-dark cycle. Mice (n=6) are weighed and fasted for a two hour period prior to oral treatment. GK activators are formulated in Gelucire vehicle (Ethanol:Gelucire44/14:PEG400q.s. 4:66:30 v/w/v. For studies in lean mice, the mice were dosed orally with 5.04 per gram of body weight (i.e. 5 ml/kg×10.0 mg/ml formulation to equal a 50 mg/kg dose). For studies in DIO mice, the mice were dosed orally with 5.04 per gram of body weight (i.e. 5.0 ml/kg×5 mg/ml formulation to equal a 25 mg/kg dose). Immediately prior to dosing, a pre-dose (time zero) blood glucose reading was acquired by snipping off a small portion of the animal's tail and collecting […] blood into a heparinized capillary tube for analysis. Following GK activator administration, additional blood glucose readings were taken at various time points post dose from the same tail wound. Results were interpreted by comparing the mean blood glucose values of vehicle treated mice with GK activator treated mice over the study period.
# The Table below provides data for % glucose lowering of a representative number of compounds of the present invention vs control at 2 hours post 25 or 50 mg/kg dose in C57B6 mice: […]
SMILES,SC1.5 [1],change in vivo at 50 mg/kg (C57BL/6J mice),change in vivo at 25 mg/kg (C57BL/6J mice)
"CC(C)NC(=O)c1cnc2[nH]c(C(CC3CCCC3)c3ccc(S(C)(=O)=O)cc3)cc2c1 (stereo not drawn) [Example 3, 2-[2-Cyclopentyl-1-(4-methanesulfonyl-phenyl)-ethyl]-1H-pyrrolo[2,3-b]pyridin-5-carboxylic acid isopropylamide]",1.9 µM,-5.6%,
"CC(C)(O)c1ccc([C@@H](CC2CCCC2)c2cc3cccnc3[nH]2)cc1 (single isomer, unassigned) [Example 82]",0.647 µM,,-42.7%
"CS(=O)(=O)c1ccc([C@@H](CC2CCOCC2)c2cc3cccnc3[nH]2)cc1 (single isomer, unassigned) [Example 67]",0.505 µM,,-43.6%
"COc1cnc2[nH]c(C(CC3CCCO3)c3ccc(S(C)(=O)=O)cc3)cc2c1 (single isomer, unassigned) [Example 22, 2-[1-(4-Methanesulfonyl-phenyl)-2-(tetrahydro-furan-2-yl)-ethyl]-5-methoxy-1H-pyrrolo[2,3-b]pyridine]",2.5 µM,,-6.3%
"COc1cnc2[nH]c([C@H](CC3CCOCC3)c3ccc(C(F)(F)F)cc3)cc2c1 (single isomer, unassigned) [Example 34]",0.958 µM,,-10.7%
"CS(=O)(=O)c1ccc([C@@H](CC2CCOCC2)c2cc3cc(F)cnc3[nH]2)cc1 (single isomer, unassigned) [Example 124]",0.21 µM,,-35%
"Clc1ccc(C(CC2CCCC2)c2cc3cccnc3[nH]2)cc1Cl (stereo not drawn) [Example 139, 2-[2-Cyclopentyl-1-(3,4-dichloro-phenyl)-ethyl]-1H-pyrrolo[2,3-b]pyridine]",1.1 µM,25.4%,
"CS(=O)(=O)c1ccc(C(CC2CCCC2)c2cc3cccnc3[nH]2)cn1 (stereo not drawn) [Example 109, 2-[2-Cyclopentyl-1-(6-methanesulfonyl-pyridin-3-yl)-ethyl]-1H-pyrrolo[2,3-b]pyridine]",2.1 µM,-31.6%,
"CS(=O)(=O)c1ccc([C@@H](CC2CCCC2)c2cc3cc(F)cnc3[nH]2)cc1 (single isomer, unassigned) [Example 118]",0.05 µM,,-48.4%
"COc1cnc2[nH]c([C@H](CC3CCOCC3)c3ccc(S(C)(=O)=O)cc3)cc2c1 (single isomer, unassigned) [Example 32]",1.1 µM,,-23.4%
"CS(=O)(=O)c1ccc(C(CC2CCCCO2)c2cc3cccnc3[nH]2)cc1 (single isomer, unassigned) [Example 60, 2-[1-(4-Methanesulfonyl-phenyl)-2-(tetrahydro-pyran-2-yl)-ethyl-]-1H-pyrrolo[2,3-b]pyridine]",0.451 µM,,-29.9%
"CC(C)Oc1cnc2[nH]c([C@H](CC3CCCC3)c3ccc(S(C)(=O)=O)cc3)cc2c1 (single isomer, unassigned) [Example 19]",0.414 µM,,-14.8%
"CC(C)(O)c1ccc(C(CC2CCCC2)c2cc3cccnc3[nH]2)cc1F (stereo not drawn) [Example 95, 2-{4-[2-Cyclopentyl-1-(1H-pyrrolo[2,3-b]pyridin-2-yl)-ethyl]-2-fluoro-phenyl}-propan-2-ol]",0.379 µM,-49.4%,
"CC(C)(O)c1ccc([C@@H](CC2CCCC2)c2cc3cc(F)cnc3[nH]2)cc1 (single isomer, unassigned) [Example 120]",0.241 µM,,-52%
"COCCOc1cnc2[nH]c([C@H](CC3CCCC3)c3ccc(S(C)(=O)=O)cc3)cc2c1 (single isomer, unassigned) [Example 16]",0.21 µM,,-31.3%
